Reference: ChEMBL document CHEMBL1201862, “PubChem BioAssay data set” (2004)
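These data come from cells grown in 96-well plates and exposed to compound for 48 hours at five concentrations. Here, GI50 denotes the concentration required for 50% inhibition of growth.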 The source made the active and inactive calls. Rule as the data show it: active = GI50 up to about 1.1 µM and inactive = higher.

Experiments:
Experiment in all cases: growth of human tumour cells (NCI), 48 h
[1] = system: M14
[2] = system: T47D
[3] = system: EKVX
[4] = system: ACHN
[5] = system: HT-29
[6] = system: Malme-3M
[7] = system: SR
[8] = system: DU-145
[9] = system: SK-MEL-5
[10] = system: 786-0
[11] = system: TK-10
[12] = system: HOP-92
[13] = system: OVCAR-8
[14] = system: U-251
[15] = system: Hs-578T
[16] = system: CCRF-CEM
[17] = system: LOX IMVI
[18] = system: UO-31
[19] = system: RPMI-8226
[20] = system: NCI-H23

Row | SMILES | GI50 [1] | GI50 [2] | GI50 [3] | GI50 [4] | GI50 [5] | GI50 [6] | GI50 [7] | GI50 [8] | GI50 [9] | GI50 [10] | GI50 [11] | GI50 [12] | GI50 [13] | GI50 [14] | GI50 [15] | GI50 [16] | GI50 [17] | GI50 [18] | GI50 [19] | GI50 [20]
1 | CN1c2ccccc2C(=O)NC12CCN(CC1COc3ccccc3O1)CC2 (stereo not given) | 27.8 µM (inactive) | 21.2 µM (inactive) | 51.6 µM (inactive) | 19.6 µM (inactive) | 31.9 µM (inactive) | 33 µM (inactive) | 23.8 µM (inactive) | 61 µM (inactive) | 16.2 µM (inactive) | 69.7 µM (inactive) | 44.8 µM (inactive) | 14 µM (inactive) | 60.5 µM (inactive) | 40.2 µM (inactive) | 32.7 µM (inactive) | 36.1 µM (inactive) | 45.1 µM (inactive) | 16.9 µM (inactive) | 30.5 µM (inactive) | 45.8 µM (inactive)
2 | CSC(=N\c1ccccc1)/N=C(\SCc1ccccc1)N(C)C | 0.789 µM (active) | 0.427 µM (active) | 1.63 µM (inactive) | 1 µM (active) | 0.288 µM (active) | 1.14 µM (inactive) | 0.16 µM (active) | 0.9 µM (active) | 1.47 µM (inactive) | 0.531 µM (active) | 1.15 µM (inactive) | 1.4 µM (inactive) | 1.2 µM (inactive) | 1.12 µM (inactive) | 0.859 µM (active) | 0.27 µM (active) | 0.189 µM (active) | 1.46 µM (inactive) | 0.218 µM (active) | 1.24 µM (inactive)
3 | COC1N(C2CC(O)C(CO)O2)C(=O)NC(=O)C1(F)Br (stereo not given) | 15 µM (inactive) | > 72.3 µM (inactive) | 67.1 µM (inactive) | 1.88 µM (inactive) | 20 µM (inactive) | 15.1 µM (inactive) | 6.18 µM (inactive) | 4.72 µM (inactive) | 7.66 µM (inactive) | 5.01 µM (inactive) | > 100 µM (inactive) | 22 µM (inactive) | 4.02 µM (inactive) | 23.9 µM (inactive) | 24.5 µM (inactive) | 3.53 µM (inactive) | 6.1 µM (inactive) | 10.3 µM (inactive) | 19.3 µM (inactive) | 6.73 µM (inactive)
4 | O=C(Cc1ccc(Cl)c(Cl)c1)N(CCc1ccc(Cl)c(Cl)c1)CCN1CCCC1 | 1.77 µM (inactive) | 4.06 µM (inactive) | 1.92 µM (inactive) | 1.71 µM (inactive) | 1.86 µM (inactive) | 1.73 µM (inactive) | 1.39 µM (inactive) | 2.14 µM (inactive) | 1.78 µM (inactive) | 1.61 µM (inactive) | 1.81 µM (inactive) | 1.88 µM (inactive) | 1.93 µM (inactive) | 1.71 µM (inactive) | 2.98 µM (inactive) | 1.31 µM (inactive) | 1.73 µM (inactive) | 1.85 µM (inactive) | 1.71 µM (inactive) | 1.95 µM (inactive)
5 | Cc1cnc(NCCCN(C)C)c2c1[nH]c1ccc3cc(O)ccc3c12 | 1.28 µM (inactive) | 0.485 µM (active) | 1.49 µM (inactive) | 0.552 µM (active) | 0.362 µM (active) | 0.879 µM (active) | 0.0617 µM (active) | 1.29 µM (inactive) | 0.815 µM (active) | 0.2 µM (active) | 6.04 µM (inactive) | 0.187 µM (active) | 0.2 µM (active) | 0.164 µM (active) | 0.325 µM (active) | 1.01 µM (active) | 0.247 µM (active) | 2.03 µM (inactive) | 0.6 µM (active) | 0.499 µM (active)
6 | Cc1cc(-c2c(F)cc3c4nn([C@H]5CC[C@@H](N(C)C)CC5)c(=O)c-4cn(C4CC4)c3c2F)cc(C)n1 | 0.46 µM (active) | 0.347 µM (active) | 2.06 µM (inactive) | 0.214 µM (active) | 0.245 µM (active) | 0.38 µM (active) | 0.0735 µM (active) | 0.416 µM (active) | 0.289 µM (active) | 0.133 µM (active) | 0.519 µM (active) | 0.0453 µM (active) | 0.221 µM (active) | 0.105 µM (active) | 0.173 µM (active) | 0.0452 µM (active) | 0.0998 µM (active) | 1.59 µM (inactive) | 1.11 µM (active) | 0.132 µM (active)
7 | C=C1CC2(CC(c3ccccc3OC)OC(c3ccccc3OC)C2)OC1=O (stereo not given) | 1.72 µM (inactive) | 1.72 µM (inactive) | 14.6 µM (inactive) | 2.29 µM (inactive) | 2.06 µM (inactive) | 1.72 µM (inactive) | 1.84 µM (inactive) | 7.8 µM (inactive) | 2.58 µM (inactive) | 1.63 µM (inactive) | 1.71 µM (inactive) | 1.64 µM (inactive) | 1.8 µM (inactive) | 7.16 µM (inactive) | 2.02 µM (inactive) | 1.71 µM (inactive) | 1.47 µM (inactive) | 1.52 µM (inactive) | 0.25 µM (active) | 2.1 µM (inactive)
8 | COc1ccc(/N=N/C(=O)NC(Cc2ccccc2)C(=O)O)cc1 (stereo not given) | > 100 µM (inactive) | > 100 µM (inactive) | > 100 µM (inactive) | > 100 µM (inactive) | > 100 µM (inactive) | > 100 µM (inactive) | > 100 µM (inactive) | > 100 µM (inactive) | > 100 µM (inactive) | > 100 µM (inactive) | > 100 µM (inactive) | 28.2 µM (inactive) | > 100 µM (inactive) | > 100 µM (inactive) | > 100 µM (inactive) | > 100 µM (inactive) | > 100 µM (inactive) | > 100 µM (inactive) | > 100 µM (inactive) | > 100 µM (inactive)
9 | COc1cc2c(NCCCCCO)ncnc2c(OC)c1OC | > 100 µM (inactive) | > 96.2 µM (inactive) | > 100 µM (inactive) | > 100 µM (inactive) | > 100 µM (inactive) | > 63 µM (inactive) | > 87.9 µM (inactive) | > 100 µM (inactive) | > 84.7 µM (inactive) | > 100 µM (inactive) | > 100 µM (inactive) | 43.8 µM (inactive) | > 100 µM (inactive) | > 100 µM (inactive) | > 100 µM (inactive) | > 93.3 µM (inactive) | > 100 µM (inactive) | > 85.9 µM (inactive) | > 93.1 µM (inactive) | > 100 µM (inactive)
10 | CC(c1ccccc1)n1c2ccccc2c2c(N)ncnc21 (stereo not given) | 18.8 µM (inactive) | 15.5 µM (inactive) | 10.8 µM (inactive) | 11.7 µM (inactive) | 17.3 µM (inactive) | 21.2 µM (inactive) | 24.7 µM (inactive) | 18.6 µM (inactive) | 19.5 µM (inactive) | 14.9 µM (inactive) | 17.1 µM (inactive) | 13.6 µM (inactive) | 17.1 µM (inactive) | 16.7 µM (inactive) | 18 µM (inactive) | 27.8 µM (inactive) | 17.5 µM (inactive) | 9.16 µM (inactive) | 42.4 µM (inactive) | 20.4 µM (inactive)
